Measurements reported in ChEMBL document CHEMBL3872273, “α-Pyrone derivatives, tetra/hexahydroxanthones, and cyclodepsipeptides from two freshwater fungi” (Bioorg Med Chem, 2017).
Converted amounts (≈) assume the structure as drawn. The source made the active and inactive calls. The rule behind the calls is not given here.

How the values were obtained:
Escherichia coli [1] = experiment: Inhibition of Escherichia coli Peptidyl-tRNA hydrolase assessed as reduction in peptidyl-tRNA cleavage to free tRNA by gel electrophoresis
Candida albicans = experiment: Antimicrobial activity against Candida albicans; type: functional
[2] = system: Mycolicibacterium smegmatis; experiment: Antimicrobial activity against Mycobacterium smegmatis; type: functional
Pseudomonas aeruginosa = experiment: Inhibition of Pseudomonas aeruginosa Peptidyl-tRNA hydrolase assessed as reduction in peptidyl-tRNA cleavage to free tRNA by gel electrophoresis
Aspergillus niger = experiment: Antimicrobial activity against Aspergillus niger; type: functional
Staphylococcus aureus = experiment: Antimicrobial activity against Staphylococcus aureus; type: functional
Escherichia coli [3] = experiment: Antimicrobial activity against Escherichia coli; type: functional
[4] = system: Salmonella enterica subsp. enterica serovar Typhimurium; experiment: (§1) Inhibition of Salmonella typhimurium Peptidyl-tRNA hydrolase assessed as reduction in peptidyl-tRNA cleavage to free tRNA by gel electrophoresis
[5] = as §1; design: species or system Salmonella enterica subsp. enterica serovar Typhimurium

Row | SMILES | inhibition (Escherichia coli [1]) | MIC (Candida albicans) | MIC [2] | inhibition (Pseudomonas aeruginosa) | MIC (Aspergillus niger) | MIC (Staphylococcus aureus) | MIC (Escherichia coli [3]) | inhibition [4] | IC50 [5]
1 | CCC[C@H]1Cc2oc(=O)cc(OC)c2CO1 | Active | > 203 µg/mL | > 203 µg/mL | Active | 203 µg/mL (≈ 905 µM) | > 203 µg/mL | > 203 µg/mL | Active | 
2 | COc1cc(=O)oc2c1CO[C@@H](CC(C)=O)C2 [PYRENOCINE K] |  | > 25 µg/mL | > 25 µg/mL |  | > 25 µg/mL | > 25 µg/mL | > 25 µg/mL |  | 
3 | COc1cc(=O)oc2c1CO[C@@H](CO)C2 | Active | > 53 µg/mL | > 53 µg/mL | Active | > 53 µg/mL | > 53 µg/mL | > 53 µg/mL | Active | 
4 | COc1cc(=O)oc2c1CO[C@@H](C[C@@H](C)O)C2 | Active |  |  | Active |  |  |  | Active | 
5 | CCCCCc1oc(=O)cc(OC)c1CO [PYRENOCINE M] |  | > 140 µg/mL | > 140 µg/mL |  | > 140 µg/mL | > 140 µg/mL | > 140 µg/mL |  | 
6 | COC(=O)[C@]12Oc3cccc(O)c3C(=O)[C@@H]1[C@@H](O)C[C@@H](C)[C@@H]2O |  | > 75 µg/mL | > 75 µg/mL |  | > 75 µg/mL | > 75 µg/mL | > 75 µg/mL |  | 
7 | CCC[C@H]1OCc2c(OC)cc(=O)oc2[C@H]1O | Active | 145 µg/mL (≈ 604 µM) | 145 µg/mL (≈ 604 µM) | Active | > 145 µg/mL | > 145 µg/mL | > 145 µg/mL | Active | 
8 | CC[C@H](C)[C@@H]1NC(=O)[C@H](CCC(N)=O)N(C)C(=O)[C@@H](C(C)C)N(C)C(=O)CNC(=O)[C@@H]2CCCN2C(=O)[C@H](Cc2ccccc2)NC(=O)[C@H]([C@@H](C)CC)OC(=O)[C@H](CCC(=O)O)N(C)C(=O)[C@H](C(C)C)NC(=O)[C@@H]2CCCN2C1=O |  | > 125 µg/mL | > 125 µg/mL |  | > 125 µg/mL | > 125 µg/mL | > 125 µg/mL |  | 
9 | COC(=O)[C@]12Oc3ccc(-c4ccc5c(c4O)C(=O)C4=C(O)C[C@@H](C)[C@H](O)[C@@]4(C(=O)OC)O5)c(O)c3C(=O)C1=C(O)C[C@@H](C)[C@@H]2O [SECALONIC ACID A] | Active | > 75 µg/mL | > 75 µg/mL | Active | > 75 µg/mL | > 75 µg/mL | > 75 µg/mL |  | 1400 µM
10 | COc1cc(=O)oc(CO)c1C |  | 25 µg/mL (≈ 147 µM) | 25 µg/mL (≈ 147 µM) |  | > 25 µg/mL | > 25 µg/mL | 25 µg/mL (≈ 147 µM) |  | 
11 | COC(=O)[C@]12Oc3cccc(O)c3C(=O)[C@@H]1[C@H](O)C[C@@H](C)[C@@H]2O | Active | 100 µg/mL (≈ 310 µM) | > 100 µg/mL | Active | > 100 µg/mL | > 100 µg/mL | > 100 µg/mL | Active | 
12 | CCC[C@H]1Cc2oc(=O)cc(OC)c2[C@H](O)O1 |  | > 75 µg/mL | > 75 µg/mL |  | > 75 µg/mL | > 75 µg/mL | 75 µg/mL (≈ 312 µM) |  | 
13 | CCCCC(O)c1cc(OC)c(C)c(=O)o1 (racemic) |  | > 35 µg/mL | > 35 µg/mL |  | > 35 µg/mL | > 35 µg/mL | > 35 µg/mL |  | 
14 | COC(=O)[C@]12Oc3cccc(O)c3C(=O)C1=C(O)C[C@@H](C)[C@@H]2O | Active | > 65 µg/mL | > 65 µg/mL | Active | > 65 µg/mL | > 65 µg/mL | > 65 µg/mL | Active | 
15 | CC[C@H](C)[C@@H]1NC(=O)[C@H](CCC(N)=O)N(C)C(=O)[C@@H](C(C)C)N(C)C(=O)CNC(=O)[C@@H]2CCCN2C(=O)[C@H](Cc2ccccc2)NC(=O)[C@H]([C@@H](C)CC)OC(=O)[C@H](CCC(=O)O)N(C)C(=O)[C@H](C(C)C)NC(=O)[C@@H]2CCCCN2C1=O |  | > 98 µg/mL | > 98 µg/mL |  | > 98 µg/mL | > 98 µg/mL | > 98 µg/mL |  | 
16 | CCC[C@@H](O)Cc1oc(=O)cc(OC)c1C |  | > 155 µg/mL | > 155 µg/mL |  | > 155 µg/mL | > 155 µg/mL | > 155 µg/mL |  | 
17 | CCCC(O)Cc1oc(=O)cc(OC)c1CO (racemic) |  | > 55 µg/mL | > 55 µg/mL |  | > 55 µg/mL | > 55 µg/mL | > 55 µg/mL |  | 
